{"source": "patent US12521414B2", "about": "“Method for preventing or treating urological chronic pelvic pain syndrome” (priority 2022, dated 2026)", "tested_on": "Human urothelial T24 cells", "test": "WST-1 cell viability assay, 4-HC-induced loss of T24 viability", "type": "cell-based", "conditions": "37.5 μM 4-HC for 4 h, WST-1 assay, n=3", "experimental": "FIGS. 2A to 2D illustrate the CeNPs testing with human urothelial T24 cells in vitro. FIG. 2A illustrates that T24 cells were treated with 4-HC at concentrations of 0, 12.5, 25, 37.5, 50, 75, and 100 μM for 4 h (hours). Cell viability was examined utilizing the WST-1 assay (MK400, Takara, Mountain View, CA, USA).\nFIG. 2B illustrates that 4-HC-induced loss of T24 viability was rescued by cerium oxide nanoparticle (CeNP) treatment (n=3). […] Fluorescence microscope images of the groups: (1) control group; (2) only 4-HC group: 37.5 μM 4-HC added for 4 h to induce cell oxidative stress; (3) CeNP treatment group: 5 μg/mL CeNPs were applied for 24 h before 4-h induction with 37.5 μM 4-HC; and (4) CeNP-only group: only 5 μg/mL CeNPs were applied for 24 h. […] Values are expressed as the mean±SD. Data were analyzed by one-way analysis of variance with Tukey's multiple comparisons test. *P<0.05, **P<0.01. n.s.: no statistical difference, (n=3).\nHuman urothelial T24 cells (#60062, BCRC, Taiwan) were cultured in 90% McCoy's 5a medium (Sigma, St. Louis, MO, USA) with 1.5 mM L-glutamine, 10% (v/v) fetal bovine serum, and 1% (v/v) PS. Cells were maintained at 37° C. in a humidified incubator containing 5% CO2 [6], and 4-HC was used to induce cellular oxidative stress. T24 cells were seeded into a 96-well plate at a density of 10^4 cells/well and incubated for 24 h until full adhesion was achieved. […]"}
{"smiles": "O=P1(N(CCCl)CCCl)NC(OO)CCO1", "note": "(stereo not shown) [4-HC, 4-hydroperoxycyclophosphamide]", "values": [{"measurement": "cell viability of T24 cells", "value": "approximately 50%"}]}
